Test results published in patent publication US7803559B1, “Protein aggregation regulators” (The Regents of the University of CA, priority 2003, dated 2010).
Counter-ions that a name gives are not always drawn.

Biological target: T1, htt(72)CFP/YFP (Homo sapiens, UniProt P42858, INS38QQQQQQQQQQQQQQQQQQQQQQQQQQQQQQQQQQQQQQQQQQQQQQQQQQQ)
T1 construct: htt exon 1 fragment derived from plasmid qp72; expressed in transfected cells; host or cells: HEK293
Test: FRET based assay of htt aggregation
Type: cell-based
Conditions: HEK293, htt(72)CFP/YFP, 24 hours
Experimental: Aggregation of htt was monitored using the FPR FRET based HTS described herein for assaying aggregation of AR, using plasmids with htt exon 1-CFP and -YFP fusions containing 72 repeats (htt(72)CFP/YFP). HEK293 cells were transfected with htt(72)CFP/YFP as above, and cells were plated into a 96-well dish in the presence or absence of various concentrations of test compounds. After 24 hours, cells were fixed in 4% paraformaldehyde, and FRET signal was determined from the cell monolayers by reading on the FPR.

T1 sequence (P42858 with tags, fused parts or gaps, stated change not applied): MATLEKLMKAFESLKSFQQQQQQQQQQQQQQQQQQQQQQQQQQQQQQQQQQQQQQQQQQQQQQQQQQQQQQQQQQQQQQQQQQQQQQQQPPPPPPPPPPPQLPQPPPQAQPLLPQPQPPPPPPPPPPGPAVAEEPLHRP

| Compound | Max % Inh. in Htt [%] |
| --- | --- |
| COc1cc2ncnc(Nc3ccc(F)c(Cl)c3)c2cc1OCCCN1CCOCC1 [Iressa, (3-Chloro-4-fluoro-phenyl)-[7-methoxy-6-(3-morpholin-4-yl-propoxy)-quinazolin-4-yl]-amine] | 20 |
| COc1cc2nc[nH]c(=O)c2cc1OC(C)=O [Compound 4, Acetic acid 7-methoxy-4-oxo-3,4-dihydro-quinazolin-6-yl ester] | 15 |
| Oc1cc(O)cc(/C=C/c2ccc(O)c(O)c2)c1 [Piceatannol, 3,3′4,5′-Tetrahydroxy-Trans-stilbene] | 28 |

Tested on: ARN127(65)CFP/YFP
Test: Secondary screen using the AR FRET assay
Type: cell-based, human
Conditions: not given
Experimental: Selected candidate compounds and/or libraries of compounds were screened as follows. Daughter plates were created in duplicate from the 384-well microtiter plates that contained the compounds at a concentration of 80 μg/ml. […] To screen a library, HEK293 cells stably expressing RFP were plated in 10 cm plates to obtain ˜80% confluency on the day of transfection. Each plate was transfected with 2 μg of ARN127(65)CFP/YFP each, and 0.7 μg p6RGRΔ using 50 μL Plus Reagent™ and 76 μL Lipofectamine™ according to manufacturer's protocol (Invitrogen). After 3 hours, complete medium was added and the plates were incubated further for 3 hours. […] The cells were then cultured for ˜48 hours to allow aggregate formation. After fixing the cells FRET signal was measured using a SAFIRE Fluorescence Plate Reader (Tecan, Inc.) according to methods described above. Several internal controls were used to standardize each experiment. Mock transfected cells were used to control for background autofluorescence and light scattering by mammalian cells. To control for CFP bleedthrough and crossover excitation of YFP, additional wells contained cells expressing ARN127(25)CFP or ARN127(25)YFP alone. RFP was measured to control for non-specific effects on steady-state protein levels. ARN127(25)CFP/YFP expression served as a reference point for background FRET levels without aggregation (a theoretical maximum effect on aggregation inhibition). FRET measurements for each experiment were thus scaled between 100% (cells with no drug treatment) and 0% (FRET levels from unexpanded protein).
Selected candidate compounds from the primary screen of all three libraries were assayed again in a secondary screen using the AR FRET assay.
Finally, the role of F-actin in preventing polyglutamine aggregation was investigated by treating cells with two agents that prevent actin depolymerization: phalloidin and jasplakinolide.

| Compound | Max % Inhibition [%] |
| --- | --- |
| (2-hydroxyethyl) trimethylammonium chloride carbamate [Carbachol] | 20 |

Same assay, conditions: agents that prevent actin depolymerization, Table 5

| Compound | Max % Inhibition [%] |
| --- | --- |
| C/C1=C\[C@H](C)C[C@H](C)OC(=O)C[C@H](c2ccc(O)cc2)NC(=O)[C@@H](Cc2c(Br)[nH]c3ccccc23)N(C)C(=O)[C@H](C)NC(=O)[C@@H](C)C1 [Jasplakinolide] | 30 |
| Phalloidin | 35 |

Same assay, conditions: secondary screen, AR FRET assay, Table 3

| Compound | Max % Inhibition [%] |
| --- | --- |
| CCOC(=O)Nc1c[n+](N2CCOCC2)no1 [Molsidomine, N-(Ethoxycarbonyl)-3-(4-morpholino)sydnone imine] | 20 |
| COc1cc(C)c(C(=O)Oc2cc(C)c(C(=O)O)c(O)c2C)c(OC)c1C [Diffractic acid, 4-[(2,4-dimethoxy-3,6-dimethylbenzoyl)-oxy]-2-hydroxy-3,6-dimethylbenzoic acid] | 20 |
| N,N-bis(4-aminobutyl)amine [Spermidine HCl] | 19 |
| COc1cc2nc[nH]c(=O)c2cc1OC(C)=O [Compound 4, Acetic acid 7-methoxy-4-oxo-3,4-dihydro-quinazolin-6-yl ester] | 28 |
| NS(=O)(=O)c1cc2c(cc1Cl)N=CNS2(=O)=O [Chlorothiazide, 6-Chloro-2H-1,2,4-benzothiadiazine-7-sulfonamide 1,1-dioxide] | 19 |
| COc1ccc2c(c1OC)C(=O)O[C@H]2[C@@H]1c2cc3c(cc2CCN1C)OCO3 [1S,9R-beta hydrastine, 1S,9R-(+)-beta hydrastine] | 18 |
| Cc1cc(-c2ccccc2)nnc1NCCN1CCOCC1 [Minaprine HCl, N-(4-Methyl-6-phenyl-3-pyridazinyl)-4-morpholineethanamin] | 18 |
| CCCCC/C=C\C/C=C\C/C=C\C/C=C\CCCC(=O)O [Arachidonic acid, cis,cis,cis,cis-5,8,11,14-Eicosatetraenoic aci] | 19 |
| O=C(O)c1ccccc1OP(=O)(O)O [Fosfosal, 2-phosphonooxybenzoic acid] | 23 |
| Oc1cc(O)cc(/C=C/c2ccc(O)c(O)c2)c1 [Piceatannol, 3,3′4,5′-Tetrahydroxy-Trans-stilbene] | 23 |
| COc1ccc([C@@H]2Sc3ccccc3N(CCN(C)C)C(=O)[C@@H]2OC(C)=O)cc1.Cl (relative stereo) [Diltiazem HCl, (2S,3S)-(+)-cis-3-Acetoxy-5-(2-dimethylaminoethyl)-2,3-dihydro-2-(4-methoxyphenyl)-1,5-benzothiazepin-4(5H)-one hydrochloride] | 22 |
| DL-alanine,2,4-chlorophenyl-1,1-dimethylethyl ester [Alaproclate] | 17 |
| CC1=CC(=O)C2=C(C)CCC3[C@H](C)C(=O)O[C@@H]3[C@H]12 (stereo partly drawn) [Leucodin, (3S,9aR,9bS)-3,6,9-trimethyl-3,3a,4,5,9a,9b-hexahydroazuleno-[4,5-b]furan-2,7-dione] | 23 |
| O=C1CC(c2ccc(O)cc2)Oc2cc(O)cc(O)c21 (racemic) [Naringenin, (±)-2,3-Dihydro-5,7-dihydroxy-2-(4-hydroxyphenyl)-4H-1-benzopyran-4-one] | 19 |
| CC(C)(C)NCC(O)COc1cccc2c1CC(O)C(O)C2 (stereo not drawn) [Nadolol] | 19 |
| CNCCc1ccccn1.Cl.Cl [Betahistine hydrochloride, N-methyl-N-(2-pyridin-2-ylethyl)amine dihydrochloride] | 19 |

Tested on: ARN127(65)CFP/YFP
Test: Primary high-throughput AR FRET screen of three libraries
Type: cell-based, human
Conditions: compounds at 4 μg/ml, HEK293, ARN127(65)CFP/YFP + GRΔ, 100 nM dex, ~48 hours
Experimental: (§1) Selected candidate compounds and/or libraries of compounds were screened as follows. Daughter plates were created in duplicate from the 384-well microtiter plates that contained the compounds at a concentration of 80 μg/ml. Compounds were aliquoted in 96-well plates (Costar™ 3603) at a concentration at which most of the compounds are active, but are not toxic to the cells (e.g., of 4 μg/ml). To screen a library, HEK293 cells stably expressing RFP were plated in 10 cm plates to obtain ˜80% confluency on the day of transfection. Each plate was transfected with 2 μg of ARN127(65)CFP/YFP each, and 0.7 μg p6RGRΔ using 50 μL Plus Reagent™ and 76 μL Lipofectamine™ according to manufacturer's protocol (Invitrogen). After 3 hours, complete medium was added and the plates were incubated further for 3 hours. […] The cells were then cultured for ˜48 hours to allow aggregate formation. After fixing the cells FRET signal was measured using a SAFIRE Fluorescence Plate Reader (Tecan, Inc.) according to methods described above. Several internal controls were used to standardize each experiment. Mock transfected cells were used to control for background autofluorescence and light scattering by mammalian cells. To control for CFP bleedthrough and crossover excitation of YFP, additional wells contained cells expressing ARN127(25)CFP or ARN127(25)YFP alone. RFP was measured to control for non-specific effects on steady-state protein levels. ARN127(25)CFP/YFP expression served as a reference point for background FRET levels without aggregation (a theoretical maximum effect on aggregation inhibition). FRET measurements for each experiment were thus scaled between 100% (cells with no drug treatment) and 0% (FRET levels from unexpanded protein). Last, each plate also contained wells treated with Y-27632 (50 μM) as a positive control.
as §1, with “Daughter” for “Selected candidate compounds and/or libraries of compounds were screened as follows. Daughter”, “a single concentration, e.g.,” for “a concentration of”, “concentration of 4 μg/ml,” for “concentration”, “the cells.” for “the cells (e.g., of 4 μg/ml).”, “screen the” for “screen a”

| Compound | % Inhibition [%] |
| --- | --- |
| COC1=C2CC[C@@H]3[C@H](CC[C@]4(C)C(=O)CC[C@@H]34)[C@@]2(C)CCC1=O [4-Androsten-4-ol-3,17-dione 4-methyl ether] | 65.3 |
| Nc1ccc(S(=O)(=O)Nc2ncccn2)cc1 [Sulfadiaine Free Acid] | 80 |
| Cc1ccc(S(=O)(=O)N[C@@H](CCC(N)=O)C(=O)OC(C)C)cc1 [N-(P-Tosyl)-L-Glutamine Isopropyl Ester] | 80.6 |
| NCCCCCCNS(=O)(=O)c1cccc2ccccc12 [N-6-Aminohexyl-1-Naphthalenesulfonamide] | 79.7 |
| Cc1nnc(SCC2=C(C(=O)O)N3C(=O)[C@@H](NC(=O)Cn4cnnn4)[C@H]3SC2)s1 [Cefazolin sodium] | 70 |
| Cn1cnc([N+](=O)[O-])c1Sc1ncnc2nc[nH]c12 [Azathioprine] | 74.5 |
| L-Canavanine Free Base | 73 |
| CO[C@@H]1O[C@H](CO)[C@H](O)[C@H](O[C@@H]2O[C@H](CO)[C@@H](O)[C@H](O)[C@H]2NC(C)=O)[C@H]1O [Methyl 3-O-(2-Acetamido-2-Deoxy-B-D-Glucopyranosyl)-B-D-Galactopyranoside] | 70 |
| NCc1ccc(Cl)cc1Cl [2,4-Dichlorobenzylamine] | 85 |
| Cl.NC[C@@H]1O[C@H](C23CC4CC(CC(C4)C2)C3)Cc2c1ccc(O)c2O [A-77636 hydrochloride] | 64 |
| O=c1ncnc2n([C@H]3O[C@@H](CO)[C@H](O)[C@@H]3O)[nH]cc1-2 (stereo in doubt) [Allopurinol riboside] | 71.8 |
| Cytosine beta-D-arabinofuranoside Hydrochloride | 81 |
| Nc1nc2c(nc(Br)n2[C@@H]2O[C@@H]3COP(=O)([O-])O[C@H]3[C@H]2O)c(=O)[nH]1.[Na+] [8-Bromoguanosine 3′,5′-cyclic monophosphate sodium salt] | 71 |
| NC(N)=NCCC[C@H](N)C(=O)C[C@@H](Cc1ccc(O)cc1)C(=O)O.NC(N)=NCCC[C@H](N)C(=O)C[C@@H](Cc1ccc(O)cc1)C(=O)O.O=S(=O)(O)O [Arphamenine B Hemisulfate Salt: Hydrate] | 69.7 |
